The source of these data is patent US6514997B2, “Antipicornaviral compounds and compositions, their pharmaceutical uses, and materials for their synthesis” (Agouron Pharmaceuticals, Inc., priority 1999, dated 2003).

Where two headings read alike, the source gives them in different places. Some results are limits rather than exact numbers.

For series [1], the system named is HRV-14. The series can be described thus: Antirhinoviral H1-HeLa cell culture assay (XTT cell protection, EC50), HRV-14. The class given is cell-based, human rhinovirus (HRV) serotype-14 in H1-HeLa cells. The note with it: Rhinovirus B, HRV14, H1-HeLa. Here is the method:
(§1) Antirhinoviral H1-HeLa Cell Culture Assay:
(§2) In this cell protection assay, the ability of compounds to protect cells against HRV infection was measured by the XTT dye reduction method, which is described in Weislow et al., J. Natl. Cancer Inst. […] H1-HeLa cells were infected with HRV-14 at a multiplicity of infection (m.o.i.) of 0.13 (virus particles/cell) or mock-infected with medium only. Infected or mock-infected cells were resuspended at 8×10^5 cells per mL, and incubated with appropriate concentrations of the compounds to be tested. Two days later, XTT/PMS was added to test plates and the amount of formazan produced was quantified spectrophotometrically at 450/650 nm. […] The therapeutic index (TI) was calculated by dividing the CC50 value by the EC50 value.
(§3) All strains of human rhinovirus (HRV) for use in this assay were purchased from American Type Culture Collection (ATCC), except for HRV serotype-14 (produced from the infectious cDNA clone constructed by Dr. Robert Rueckert, Institute for Molecular Virology, University of Wisconsin, Madison, Wis.). HRV stocks were propagated and viral assays were performed in H1-HeLa cells (ATCC). Cells were grown in minimal essential medium with 10% fetal bovine serum, available from Life Technologies (Gaithersburg, Md.).
(In general: Tetrazolium assays rely on reduction of a dye to a coloured formazan, in cell work by metabolically active cells.)

In series [2] the target is T1, Recombinant rhinovirus 3C protease, serotype 14 (Human rhinovirus 14, UniProt P03303).
T1 construct: Recombinant rhinovirus 3C proteases; made in house
T1 sequence (P03303 1538-1719): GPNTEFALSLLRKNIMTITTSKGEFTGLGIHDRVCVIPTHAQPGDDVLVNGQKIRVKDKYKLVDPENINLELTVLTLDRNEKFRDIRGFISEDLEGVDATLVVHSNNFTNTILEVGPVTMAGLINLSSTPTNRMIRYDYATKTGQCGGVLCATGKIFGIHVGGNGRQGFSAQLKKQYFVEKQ
The series can be described thus: Inhibition of rhinovirus 3C protease (FRET assay, kobs/[I]), serotype 14. In kind it is biochemical. The note with it: pH 7.6; HRV-14; read-out: kobs/[I] (3C protease inhibition activity). Here is the method: Inhibition of Rhinovirus 3C Protease:
Stock solutions (50 mM, in DMSO) of various compounds were prepared; dilutions were in the same solvent. Recombinant rhinovirus 3C proteases (see Birch et al., “Purification of recombinant human rhinovirus 14 3C protease expressed in Escherichia coli,” Protein Expr. Pur. (1995), vol. 6(5), 609-618) from serotypes 14, 16, and 2 were prepared by the following standard chromatographic procedures: (1) ion exchange using Q Sepharose Fast Flow from Pharmacia; (2) affinity chromatography using Affi-Gel Blue from Biorad; and (3) sizing using Sephadex G-100 from Pharmacia. Each assay sample contained 2% DMSO, 50 mM tris pH 7.6, 1 mM EDTA, a test compound at the indicated concentration, approximately 1 μM substrate, and 50-100 nM protease. The kobs/I values were obtained from reactions initiated by addition of enzyme rather than substrate. RVP activity was measured in the fluorescence resonance energy transfer assay. The substrate was (N-terminal) DABCYL-([…]-EDANS. In the uncleaved peptide, the EDANS fluorescence was quenched by the proximal DABCYL moiety. When the peptide was cleaved, the quenching was relieved, and activity was measured as an increase in fluorescence signal. The tabulated data in the column designated kobs/[I] were measured from progress curves in enzyme start experiments.

For series [3], the system named is H1-HeLa cells. The series can be described thus: Cytotoxicity (CC50) in mock-infected H1-HeLa cells, XTT dye reduction. The class given is cell-based, human. On the procedure: as §2, §3
(§4) Coxsackievirus types A-21 (CAV-21) and B3 (CVB3) were purchased from American Type Culture Collection (ATCC, Rockville, Md.). Virus stocks were propagated and antiviral assays were performed in H1-HeLa cells (ATCC). Cells were grown in minimal essential medium with 10% fetal bovine serum (Life Technologies, Gaithersburg, Md.). The ability of the compounds of this invention to protect cells against either CAV-21 or CVB3 infection was measured by the XTT dye reduction method. This method is described in Weislow et al., J. Natl. Cancer Inst. […] H1-HeLa cells were infected with CAV-21 or CVB3 at a multiplicity of infection (m.o.i.) of 0.025 or 0.075, respectively, or mock-infected with medium only. H1-HeLa cells were plated at 4×10^4 cells per well in a 96-well plate and incubated with appropriate concentrations of the test compound. One day (CVB3) or two days (CAV-21) later, XTT/PMS was added to test plates and the amount of formazan produced was quantified spectrophotometrically at 450/650 nm. […] The therapeutic index (TI) was calculated by dividing the CC50 by the EC50.

Experiment in series [4]: as above
In kind it is cell-based, human. The note with it: human, H1-HeLa cells, mock-infected; line of HRV-14. Here is the method: as §2, §3, §4

The subject of series [5] is strains of human rhinovirus (HRV). The series can be described thus: Antirhinoviral H1-HeLa cell culture assay (XTT cell protection, EC50), other HRV strains. The note with it: read-out: EC50. The class given is cell-based, human rhinovirus in H1-HeLa cells. On the procedure: as §1
In this cell protection assay, the ability of compounds to protect cells against HRV infection was measured by the XTT dye reduction method, which is described in Weislow et al., J. Natl. Cancer Inst. (1989), vol. 81, 577-586. H1-HeLa cells were infected with HRV-14 at a multiplicity of infection (m.o.i.) of 0.13 (virus particles/cell) or mock-infected with medium only. Infected or mock-infected cells were resuspended at 8×10^5 cells per mL, and incubated with appropriate concentrations of the compounds to be tested. Two days later, XTT/PMS was added to test plates and the amount of formazan produced was quantified spectrophotometrically at 450/650 nm. […] The therapeutic index (TI) was calculated by dividing the CC50 value by the EC50 value.
as §3

For orientation: EC50 means the concentration that produces a half-maximal response. Broadly, the CC50 is the concentration that lowers cell viability or growth by half. High values mean lower toxicity to the cells, low ones greater toxicity to the cells.

Turning to `CCOC(=O)/C=C/[C@H](CCC(N)=O)NC(=O)[C@H](Cc1ccccc1)n1cccc(NC(=O)C2SCCS2)c1=O` [Compound 10, trans-(2′S,4S)-6-Carbamoyl-4-(2′-{3″-[([1′″,3′″]dithiolane-2′″-carbonyl)amino]-2″-oxo-2″H-pyridin-1″-yl}-3′-phenylpropionylamino)hex-2-enoic Acid Ethyl Ester], the EC50 in series [1] (HRV-14, read-out: EC50) is 104 nM; in series [5] (H1-HeLa, HRV-1A) it was 1180 nM; in series [5] (Human rhinovirus sp., HRV10, H1-HeLa, HRV-10), 1410 nM. In series [2], the kinact/KI amounted to 113000 M⁻¹ s⁻¹. Moreover, the CC50 in series [3] (line of HRV-1A) and in series [3] (line of HRV-10) was greater than 10000 nM throughout. The compound also registered a CC50 at 2 days in series [4] greater than 10000 nM.

Compound `CCOC(=O)/C=C/[C@H](C[C@@H]1CCNC1=O)NC(=O)[C@H](Cc1ccccc1)n1cccc(NC(=O)OCc2ccccc2)c1=O` [Compound 19, trans-(2′S,3′″S,4S)-4-[2′-(3″-Benzyloxy-carbonylamino-2″-oxo-2″H-pyridin-1″-yl)-3′-phenylpropionylamino]-5-(2′″-oxopyrrolidin-3′″-yl)pent-2-enoic Acid Ethyl Ester] displayed an EC50 in series [1] of 3 nM. Moreover, in series [2], the kinact/KI turned out to be 380000 M⁻¹ s⁻¹. Further, the CC50 at 2 days in series [4] is greater than 10000 nM.

In the case of `Cc1cc(C(=O)Nc2cccn([C@@H](Cc3ccc(F)cc3)C(=O)N[C@H](/C=C3\CCOC3=O)C[C@@H]3CCNC3=O)c2=O)no1` [Compound 20, trans-(2″S,2″″S,3″″″S)-5-Methylisoxazole-3-carboxylic Acid (1′-{2″-(4′″-fluorophenyl)-1″-[2″″-(2′″″-oxodihydrofuran-3′″″-ylidene)-1″″-(2″″″oxopyrrolidin-3″″″-ylmethyl)ethylcarbamoyl]ethyl}-2′-oxo-1′,2′-dihydropyridin-3′-yl)amide], in series [1] (HRV-14, read-out: EC50), the EC50 came to 15 nM. Further, in series [2], the kinact/KI amounted to 600000 M⁻¹ s⁻¹. Also, the CC50 at 2 days in series [4] is greater than 10000 nM.

Consider `CCOC(=O)/C=C/[C@H](C[C@H]1CCNC1=O)NC(=O)[C@H](Cc1ccccc1)n1cccc(NC(=O)OCc2ccccc2)c1=O` [Compound 21, trans-(2′S,3′″R,4S)-4-[2′-(3″-Benzyloxycarbonylamino-2″-oxo-2″H-pyridin-1″-yl)-3′-phenylpropionylamino]-5-(2′″-oxopyrrolidin-3′″-yl)pent-2-enoic Acid Ethyl Ester], for which the EC50 in series [1] was determined as 469 nM. For the same compound, the kinact/KI in series [2] came out at 6340 M⁻¹ s⁻¹. The compound further gave a CC50 at 2 days in series [4] greater than 10000 nM.

In series [1], `CCOC(=O)/C=C/[C@H](C[C@@H]1CCNC1=O)NC(=O)Cn1cccc(NC(=O)c2cc(C)on2)c1=O` [Compound 22, trans-(4S,3″″S)-4-(2′-{3″-[(5′″-Methylisoxazole-3′″-carbonyl)amino]-2″-oxo-2″H-pyridin-1″-yl}acetylamino)-5-(2″″-oxopyrrilidin-3″″-yl)pent-2-enoic Acid Ethyl Ester] showed an EC50 of 1000 nM. The kinact/KI in series [2] is 18500 M⁻¹ s⁻¹. In series [4], this compound registered a CC50 at 2 days greater than 10000 nM.

As to `O=C1OCC/C1=C\[C@H](C[C@@H]1CCNC1=O)NC(=O)[C@H](Cc1ccc(F)cc1)n1cccc(NC(=O)c2cc(Cl)on2)c1=O` [Compound 23, trans-(2″S,2″S,3″″″S)-5-Chloroisoxazole-3-carboxylic Acid (1′-{2″-(4′″-fluorophenyl)-1″-[2″″-(2′″″-oxodihydrofuran-3′″″-ylidene)-1″″-(2″″″-oxopyrrolidin-3″″″-ylmethyl)ethylcarbamoyl]ethyl}-2′-oxo-1′,2′′-dihydropyridin-3′-yl)amide], the EC50 in series [1] (HRV-14, read-out: EC50) was 64 nM. For the same compound, the kinact/KI in series [2] was 385000 M⁻¹ s⁻¹. The compound also registered a CC50 at 2 days in series [4] greater than 10000 nM.

On to `CCOC(=O)/C=C/[C@H](CCC(N)=O)NC(=O)[C@H](Cc1ccccc1)n1cccc(NC(=O)c2cc(Cl)on2)c1=O` [Compound 30, trans-(2′S,4S)-6-Carbamoyl-4-(2′-{3″-[(5′″-chloroisoxazole-3′″-carbonyl)amino]-2″-oxo-2″H-pyridin-1″-yl}-3′-phenylpropionylamino)hex-2-enoic Acid Ethyl Ester], for which the EC50 in series [1] (HRV-14, read-out: EC50) worked out at 24 nM. Further, the kinact/KI in series [2] is 134000 M⁻¹ s⁻¹. This compound gave a cytotoxic concentration (CC50) at 2 days in series [4] greater than 10000 nM.

In the case of `CC[C@@H](C(=O)N[C@H](/C=C/C(=O)O)C[C@@H]1CCNC1=O)n1cccc(NC(=O)c2cc(C)on2)c1=O` [Compound 35, trans-(2S,3″″S,4S)-4-(2′-{3″-[(5′″-Methylisoxazole-3′″-carbonyl)amino]-2″-oxo-2″H-pyridin-1″-yl}butyrylamino)-5-(2″″-oxopyrrolidin-3″″-yl)pent-2-enoic Acid], in series [1], the EC50 is greater than 10000 nM. Further, the kinact/KI in series [2] stood at 220 M⁻¹ s⁻¹. For the same compound, the CC50 at 2 days in series [4] is greater than 10000 nM.

Consider `CCOC(=O)/C=C/[C@H](CCC(N)=O)NC(=O)[C@@H]1CCc2ccc(NC(=O)OCc3ccccc3)c(=O)n21` [Compound 36, trans-(3′S,4S)-4-[(6′-Benzyloxycarbonylamino-5′-oxo-1′,2′,3′,5′-tetrahydroindolizine-3′-carbonyl)amino]-6-carbamoylhex-2-enoic Acid Ethyl Ester], for which, in series [1] (HRV-14, read-out: EC50), the EC50 is 9000 nM. In addition, the kinact/KI in series [2] came to 4540 M⁻¹ s⁻¹. In series [4], this compound yielded a cytotoxic concentration (CC50) at 2 days greater than 100000 nM.

With `C#CC[C@@H](C(=O)N[C@H](/C=C/C(=O)O)C[C@@H]1CCNC1=O)n1cccc(NC(=O)c2cc(C)on2)c1=O` [Compound 43, trans-(2′S,3′″″S,4S)-4-[2′-(3″-{[1′″-(5″″-Methylisoxazol-3″″-yl)methanoyl]amino}-2′″-oxo-2′″H-pyridin-1′″-yl)pent-4″-ynoylamino]-5-(2′″″-oxopyrrolidin-3′″″-yl)pent-2-enoic Acid], the half-maximal effective concentration (EC50) in series [1] is greater than 10000 nM. The kinact/KI in series [2] worked out at 382 M⁻¹ s⁻¹. Besides, the CC50 at 2 days in series [4] is greater than 10000 nM.
